# Test results reported in patent US7250397B2, “Antiarrhythmic peptides” (Zealand Pharma A/S, priority 2000, dated 2007).
# Experiments:
# human osteoblast = assay: Lucifer Yellow dye transfer in human osteoblasts; type: cell-based; settings: 10 minutes; after 48 hours hypoxia 3-6% O2 (7 cells before)
# Protocol: (§1) Human osteblast cells (hOB): Cells were isolated from human bone marrow obtained by puncture of the posterior iliac spine of healthy volunteers (aged 20-36): 10-15 ml marrow material was collected in 15 ml PBS+Ca,Mg (Life Technologies, Cat.No. 14040) with 100 U/ml Heparin (Sigma, Cat.No. H-3149). The mononuclear fraction of the marrow was isolated on a Lymphoprep gradient (Nycomed Pharma, Cat.No. 1001967), by centrifugation at 2200 rpm for 30 min. After harvesting, the mononuclear fraction was washed once with culture medium and centrifuged at 1800 rpm for 10 min. Subsequently cells were counted and plated in culture medium at 8×10^6 cells/100 mm dish. hOB medium (all reagents obtained from Life Technologies): MEM w/o Phenol Red w/Glutamax (Cat.No. 041-93013) supplemented with 10% heat inactivated fetal calf serum (Cat.No. 10106) and 0.1% Penicillin/Streptomycin (Cat.No. 15140). Medium was changed the following day and the cells were cultured at 37° C. in 5%CO2 with medium change every 7 days. […]
# To assess the effect of the compound on direct cellular coupling, microinjection experiments were performed according to the method described above. […] After 30 seconds, the number of cells containing dye was assessed. […] Then cellular coupling was re-assessed by microinjecting LY, and at this point the dye was only passed to an average of 7 cells (n=10).
# human osteoblastic cells = assay: Intercellular calcium wave propagation in human osteoblasts; type: cell-based; settings: 10^−8 M; medium without glucose (1.4 cells before); after ATP desensitization
# Protocol: as §1, with “days. After 3-4 weeks of culture the cells had reached 70% confluence. The medium was then supplemented with 100 nM Dexamethasone (Sigma, Cat.No. D-4902) for 7 days.” for “days.”
# Metabolic stress induced by hypoglycemia is also known to decrease gap junctional communication. […] After ATP desensitization as described above, one single cell was stimulated mechanically, and the number of cells in the wave was recorded. […]
substance,measurement,setting,value
Ac-D-Tyr-D-Pro-D-4Hyp-Gly-D-Ala-Gly-NH2 [Compound 2],"dye transfer, number of cells",human osteoblast,9 cells
same,average number of cells in the calcium wave,human osteoblastic cells,2.9 cells
